“And” between values parts separate entries of the source, which are not always exact repeats. Equal entries are not always repeated. Inconclusive results and toxic doses are left out.
Tested on: P388 leukemia ip, CD2F1 mice, survival T/C
Test: NCI In Vivo Anticancer Drug Screen. Data for tumor model P388 Leukemia (intraperitoneal) in CD2F1 (CDF1) mice
Conditions: endpoint: median survival time, higher = longer survival
Method in brief: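 Mice carrying the transplanted tumor received test compound or vehicle. Survival was recorded in each group, and the value is the treated-group measurement divided by that of the vehicle-treated control group.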

[1] = dose: 60.0 mg/kg/injection, schedule: Q01DX005 (ip), vehicle: saline with Tween-80
[2] = dose: 120.0 mg/kg/injection, schedule: Q01DX005 (ip), vehicle: saline with Tween-80
[3] = dose: 240.0 mg/kg/injection, schedule: Q01DX005 (ip), vehicle: saline with Tween-80
[4] = dose: 100.0 mg/kg/injection, schedule: Q01DX009 (ip), vehicle: saline with Tween-80
[5] = dose: 200.0 mg/kg/injection, schedule: Q01DX009 (ip), vehicle: saline with Tween-80
[6] = dose: 400.0 mg/kg/injection, schedule: Q01DX009 (ip), vehicle: saline with Tween-80
[7] = dose: 6.25 mg/kg/injection, schedule: Q01DX005 (ip), vehicle: saline with Tween-80
[8] = dose: 12.5 mg/kg/injection, schedule: Q01DX005 (ip), vehicle: saline with Tween-80
[9] = dose: 25.0 mg/kg/injection, schedule: Q01DX005 (ip), vehicle: saline with Tween-80
[10] = dose: 50.0 mg/kg/injection, schedule: Q01DX005 (ip), vehicle: saline with Tween-80
[11] = dose: 100.0 mg/kg/injection, schedule: Q01DX005 (ip), vehicle: saline with Tween-80
[12] = dose: 200.0 mg/kg/injection, schedule: Q01DX005 (ip), vehicle: saline with Tween-80

What does the source list for `CC(=O)N1CCCC1C(=O)O` (stereo unspecified)?
T/C (dose: 25.0 mg/kg/injection, schedule: Q04DX003 (ip), vehicle: saline): 102 % of control; T/C (dose: 50.0 mg/kg/injection, schedule: Q04DX003 (ip), vehicle: saline): 112 % of control; T/C (dose: 100.0 mg/kg/injection, schedule: Q04DX003 (ip), vehicle: saline): 105 % of control and 87 % of control; T/C (dose: 400.0 mg/kg/injection, schedule: Q04DX003 (ip), vehicle: saline): 101 % of control

Which T/C [1] does the source give for `O=C1C2=C(OCCO2)C(=O)C2=C1OCO2` here?
The T/C was 109 % of control.

And the T/C [2]?
Its T/C is 107 % of control.

What about the T/C [3] of the same compound?
Its T/C is 88 % of control.

What does the source list for `CN1C(Cl)=NS(=O)(=O)c2ccccc21`?
T/C (dose: 30.0 mg/kg/injection, schedule: Q01DX005 (ip), vehicle: saline with Tween-80): 120 % of control; T/C [1]: 112 % of control and 95 % of control

Which T/C (dose: 25.0 mg/kg/injection, schedule: Q04DX003 (ip), vehicle: Klucel (hydroxypropylcellulose) (HPC)) does the source give for `Cc1cc2cc(Cl)c(CN)cc2[nH]1` here?
Its T/C is 97 % of control.

What about the T/C (dose: 50.0 mg/kg/injection, schedule: Q04DX003 (ip), vehicle: Klucel (hydroxypropylcellulose) (HPC)) of the same compound?
Its T/C is 102 % of control.

What about the T/C (dose: 100.0 mg/kg/injection, schedule: Q04DX003 (ip), vehicle: Klucel (hydroxypropylcellulose) (HPC)) of the same compound?
The T/C was 105 % of control and 107 % of control.

Which T/C [4] does the source give for `CCOC(=O)c1cc(-c2ccc(Cl)cc2)nc2c(Cl)cc(Cl)cc12` here?
The T/C was 93 % of control.

What about the T/C [5] of the same compound?
Its T/C is 94 % of control.

And the T/C [6]?
The T/C was 88 % of control.

`CCN(CC)CCCN(C)Cc1c(-c2ccccc2)oc(-c2ccccc2)c1Cl` was tested. Which T/C [7] did it give?
The T/C was 106 % of control.

And the T/C [8]?
Its T/C is 106 % of control.

And the T/C [9]?
The T/C was 107 % of control.

What about the T/C [10] of the same compound?
The T/C was 104 % of control.

With `CC1=CC2N(C=C1)C(c1cccc([N+](=O)[O-])c1)=NON2c1cc(C)ccn1` (stereo unspecified) as the compound, how does the T/C [10] read?
Its T/C is 91 % of control.

And the T/C [11]?
Its T/C is 87 % of control and 89 % of control.

And the T/C [12]?
Its T/C is 87 % of control and 90 % of control.

Which results are given for `Cc1cc(C)c(SSc2nnnn2C)c(C)c1`?
T/C (dose: 50.0 mg/kg/injection, schedule: Q01DX009 (ip), vehicle: Klucel (hydroxypropylcellulose) (HPC)): 100 % of control; T/C (dose: 100.0 mg/kg/injection, schedule: Q01DX009 (ip), vehicle: Klucel (hydroxypropylcellulose) (HPC)): 90 % of control

With `O=C(O)C(Cc1ccc(N(CCCl)CCCl)cc1)C(=O)O` as the compound, how does the T/C (dose: 12.5 mg/kg/injection, schedule: Q01DX009 (ip), vehicle: saline with Tween-80) read?
The T/C was 161 % of control.

What about the T/C (dose: 25.0 mg/kg/injection, schedule: Q01DX009 (ip), vehicle: saline with Tween-80) of the same compound?
Its T/C is 171 % of control.

And the T/C (dose: 50.0 mg/kg/injection, schedule: Q01DX009 (ip), vehicle: saline with Tween-80)?
Its T/C is 189 % of control and 213 % of control.

How did the T/C (dose: 6.25 mg/kg/injection, schedule: Q01DX009 (ip), vehicle: saline) turn out when `CCOC(=O)C(C(C)=O)C(=O)C(C)(C)C` (stereo unspecified) was run?
Its T/C is 112 % of control.

And the T/C (dose: 12.5 mg/kg/injection, schedule: Q01DX009 (ip), vehicle: saline)?
Its T/C is 102 % of control.

What about the T/C (dose: 25.0 mg/kg/injection, schedule: Q01DX009 (ip), vehicle: saline) of the same compound?
Its T/C is 102 % of control.

And the T/C [4]?
The T/C was 91 % of control.

What about the T/C [5] of the same compound?
The T/C was 104 % of control.

With `C/C(=N/NC(=O)O[C@@H]1C[C@H](C)CC[C@H]1C(C)C)c1cc[c]([Sn]([CH3])([Cl])[c]2ccccc2)cc1` (stereo partly specified) as the compound, how does the T/C (dose: 0.93 mg/kg/injection, schedule: Q01DX005 (ip), vehicle: Klucel (hydroxypropylcellulose) (HPC)) read?
The T/C was 108 % of control.

What about the T/C (dose: 1.87 mg/kg/injection, schedule: Q01DX005 (ip), vehicle: Klucel (hydroxypropylcellulose) (HPC)) of the same compound?
Its T/C is 100 % of control.

And the T/C (dose: 3.75 mg/kg/injection, schedule: Q01DX005 (ip), vehicle: Klucel (hydroxypropylcellulose) (HPC))?
Its T/C is 100 % of control and 109 % of control.

What about the T/C (dose: 7.5 mg/kg/injection, schedule: Q01DX005 (ip), vehicle: Klucel (hydroxypropylcellulose) (HPC)) of the same compound?
Its T/C is 107 % of control.

How did the T/C (dose: 50.0 mg/kg/injection, schedule: Q01DX009 (ip), vehicle: saline) turn out when `COCCC(=NC(C)(C)C)Nc1ccccc1Cl` was run?
Its T/C is 114 % of control.

What about the T/C (dose: 100.0 mg/kg/injection, schedule: Q01DX009 (ip), vehicle: saline) of the same compound?
The T/C was 113 % of control.

And the T/C (dose: 200.0 mg/kg/injection, schedule: Q01DX009 (ip), vehicle: saline)?
The T/C was 102 % of control.

How did the T/C [4] turn out when `Nc1cc(Cl)c(N=Nc2ccccc2)c(N)n1` was run?
Its T/C is 103 % of control.

And the T/C [5]?
The T/C was 107 % of control.

And the T/C [6]?
Its T/C is 94 % of control.

`CC(=O)Oc1ccc2ccc3nonc3c2c1` was tested. Which T/C [10] did it give?
Its T/C is 99 % of control.

What about the T/C [11] of the same compound?
The T/C was 99 % of control.

And the T/C [12]?
The T/C was 94 % of control.

With `S=C(SCc1c(Cl)cccc1Cl)N1CCSCC1` as the compound, how does the T/C [1] read?
The T/C was 102 % of control.

What about the T/C [2] of the same compound?
The T/C was 93 % of control.

And the T/C [3]?
Its T/C is 96 % of control.

What does the source list for `N#CC(OC(=O)c1ccccc1)C(OC(=O)c1ccccc1)C(OC(=O)c1ccccc1)C(COC(=O)c1ccccc1)OC(=O)c1ccccc1` (stereo unspecified)?
T/C [7]: 97 % of control; T/C [8]: 95 % of control; T/C [9]: 86 % of control
